One substance from patent publication US4388234A, “Peptide isolation” (Hoffmann-La Roche Inc., priority 1981, dated 1983) can be followed below.

In this assay the test system is Candida albicans ATCC 10231. Put plainly: protective activity against opportunistic infections in immunosuppressed (5-FU pretreated) mice. The class given is in vivo. Particulars: for Survivors at Day 15 / Survivors at Day 8: daily for eight days with 5-FU 25 mg/kg/day i.p., female ddY mice; for Survivors at Day 15: survivors/total 15 days after infection; for Survivors at Day 8: survivors/total eight days after infection. As to the method: The mice were then infected with Candida albicans ATCC 10231 (1×10^5cells or more) at 24 hours after the last treatment. One control group was administered 5-FU and saline solution and a second control group received neither 5-FU nor a thymic polypeptide prior to infection with Candida albicans.

For “Thymosin β4: peptide containing 44 amino acid residues, isolated from calf thymus; contained in APF”, under “compared with the polypeptides of Thymosin Fraction 5, thymosin α1 and thymosin β8, 5-FU immunosuppressed mice”, the “protective effects against infection” value was “of comparable similar magnitude”. For the same substance, the “Survivors at Day 15” value is, setting by setting: (dose 0.4 μg/kg/day) 6/10; (dose 4 μg/kg/day) 5/10; (dose 40 μg/kg/day) 1/10. In addition, the “Survivors at Day 8” value is on record as 7/10 (dose 0.4 μg/kg/day), 5/10 (dose 4 μg/kg/day) and 1/10 (dose 40 μg/kg/day).
